Data published in patent US10519160B2, “Imaging agents for neural flux” (The General Hospital Corporation, priority 2014, dated 2019).

Legend:
olfactory epithelium [1] = assay: PET imaging of radiotracer uptake and specific binding with unlabeled-compound pretreatment in rats; format: in vivo, Sprague-Dawley rat
Source text: Prior to imaging, animals were anesthetized with isoflurane and a catheter was placed in a lateral tail vein. An extension line was used to attach the catheter to a syringe with heparinized saline, which was used to prevent clotting of the line and catheter. Animals were then placed in one of two instruments (a GammeMedicaTriumph PET/CT/SPECT scanner or a Siemens R4 PET scanner) and maintained under isoflurane anesthesia for the imaging period. For scans completed in the Triumph scanner, CT images of the animals were taken for PET image attenuation. For animals imaged in the R4, a Germanium (Ge) 68 or a Cobalt (Co) 57 line source was used to create an attenuation correction map. Following imaging, animals were placed in their cages and monitored until they recovered from the anesthesia.
Male Sprague-Dawley rats were imaged with [^11C] radiolabeled N-benzyl-2-fluoro-9-methyl-9H-purin-6-amine following treatment with [^12C] radiolabeled N-benzyl-2-fluoro-9-methyl-9H-purin-6-amine to determine the specific binding of the radiotracer in the olfactory epithelium. Animals were injected with [^12C] radiolabeled N-benzyl-2-fluoro-9-methyl-9H-purin-6-amine (i.v.; 16 mg/kg; 4 mg/mL in 10% DMSO, 10% Tween 20, and 80% saline). After 5 min, animals were injected with [^11C] radiolabeled N-benzyl-2-fluoro-9-methyl-9H-purin-6-amine (0.3-1.5 mCi), in 10% ethanol, 90% saline). [^11C] […] Although [^11C] […] N-benzyl-2-fluoro-9-methyl-9H-purin-6-amine binding in the presence of unlabeled N-benzyl-2-fluoro-9-methyl-9H-purin-6-amine, shown in FIG. 1A-1D.
Animals were injected with an unlabeled N-benzyl-2-fluoro-9-methyl-9H-purin-6-amine (0.1-16 mg/kg in 10% DMSO, 10% Tween 20, and 80% saline). Following this, animals were injected with [^11C] radiolabeled N-benzyl-2-fluoro-9-methyl-9H-purin-6-amine (0.3-1.5 mCi, in 10% ethanol, 90% saline). For the self-blocking dose-response study, the animals were co-administered with N-benzyl-2-fluoro-9-methyl-9H-purin-6-amine and [^11C] radiolabeled N-benzyl-2-fluoro-9-methyl-9H-purin-6-amine in 10% DMSO, 10% Tween 20, 10% ethanol and 70% saline in 1 mL.

olfactory epithelium [2] = assay: PET-MR imaging of radiotracer uptake in non-human primate; format: in vivo, rhesus macaque; settings: NHPs
Description: The non-human primates were initially anesthetized with ketamine, followed by maintenance with isoflurane. Animals were placed on the imaging bed and two lines were inserted, an IV line for tracer administration and an arterial line for blood sampling. The animals were scanned for 90 minutes, including time for the MR structural scan. During the scan and tracer injection, the heart and breathing rate of the animal were monitored. Tracer doses were 4-6 mCi (bolus or bolus-plus-infusion) with or without treatment with study compounds (nonradioactive ‘blocking agent’). Prior to tracer injection, the purified tracer was analyzed on an analytical HPLC instrument to determine the purity (must be >95% chemical purity, must be >99% radiochemical purity) and specific activity (must be >1.0 Ci·μmol^−1 of the compound). As standard practice for all NHP work, pyrogenicity, chemical and radiochemical stability, residual solvents, pH, and sterility (post injection) were tested for. For [^11C] radiolabeled compounds, paired studies were performed with radiotracer injections spaced >2.5 h apart. For [^18F] studies, paired studies were performed by assessing baseline and pretreatment effect on two separate days. […]

[3] = PET, i.v. radiotracer, male Sprague-Dawley rats

[11CH3]n1cnc2c(NCc3ccccc3)nc(F)nc21 [[^11C] Radiolabeled N-benzyl-2-fluoro-9-methyl-9H-purin-6-amine]
non-specific binding (olfactory epithelium [1]; PET, brain): low non-specific binding
specific binding in the brain (olfactory epithelium [1]; PET, brain): limited specific binding in the brain
initial uptake in the brain (olfactory epithelium [1]; [3]): high initial uptake in the brain
removal from the brain (olfactory epithelium [1]; [3]): fast removal from the brain
specific binding in the nasal cavity (olfactory epithelium [1]; PET, nasal cavity where olfactory receptor neurons are located, rats): specific binding in the nasal cavity
change of radiotracer binding in the presence of unlabeled N-benzyl-2-fluoro-9-methyl-9H-purin-6-amine (olfactory epithelium [1]; nasal cavity, rats, unlabeled compound i.v. 16 mg/kg 5 min before tracer): decrease
specific binding in the nasal cavity (olfactory epithelium [2]): specific binding is present in the nasal cavity
change of radiotracer binding in the presence of unlabeled N-benzyl-2-fluoro-9-methyl-9H-purin-6-amine (olfactory epithelium [2]; nasal cavity): decrease
